IC50 and EC50 data for 1 molecule are collected here from patent US20070167447A1, “Indole acetamides as inhibitors of the hepatitis c virus ns5b polymerase” (priority 2003, published 2007).

Molecules are shown by their SMILES. Where a name gives a salt, the structure may show the parent alone.

Assay [1] addresses T1, HCV RNA dependent RNA polymerase (NS5B) (Hepatitis C virus genotype 1b, UniProt P26663).
T1 construct: made in house; host or cells: insect cells infected with recombinant baculovirus (as described for the cited WO 96/37619)
Nature of the assay: In-vitro HCV NS5B enzyme inhibition assay. The class given is biochemical. Conditions: NS5B enzyme 5 nM, 1 h at 22° C. The source says: i) In-vitro HCV NS5B Enzyme Inhibition Assay
WO 96/37619 describes the production of recombinant HCV RdRp from insect cells infected with recombinant baculovirus encoding the enzyme. […] The reference describes a polymerisation assay using poly(A) and oligo(U) as a primer or an heteropolymeric template. Incorporation of tritiated UTP or NTPs is quantified by measuring acid-insoluble radioactivity. The present inventors have employed this assay to screen the various compounds described above as inhibitors of HCV RdRp.
(§1) Incorporation of radioactive UMP was measured as follows. The standard reaction (50 μl) was carried out in a buffer containing 20 mM tris/HCl pH 7.5, 5 mM MgCl2, 1 mM DTT, 50 mM NaCl, 0.03% N-octylglucoside, 1 μCi [^3H]-UTP (40 Ci/mmol, NEN), 10 μM UTP and 10 μg/ml poly(A) or 5 μM NTPs and 5 μg/ml heteropolymeric template. Oligo(U)12 (1 μg/ml, Genset) was added as a primer in the assay working on Poly(A) template. The final NS5B enzyme concentration was 5 nM. The order of assembly was: 1) compound, 2) enzyme, 3) template/primer, 4) NTP. After 1 h incubation at 22° C. the reaction was stopped by adding 50 μl of 20% TCA and applying samples to DE81 filters. The filters were washed thoroughly with 5% TCA containing 1M Na2HPO4/NaH2PO4, pH 7.0, rinsed with water and then ethanol, air dried, and the filter-bound radioactivity was measured in the scintillation counter. […]

Assay [2] concerns subgenomic HCV replicon in Huh-7 cells. Nature of the assay: Cell based HCV sub-genomic replication assay (NS3 Cell-ELISA). Conditions: Hepatitis C virus; Huh-7 replicon cells, 96 hours, NS3 expression. As to the method: as §1
Cell clones that stably maintain subgenomic HCV replicon were obtained by transfecting Huh-7 cells with an RNA replicon identical to I377neo/NS3-3′/wt described by Lohmann et al. (1999) (EMBL-genbank No. AJ242652), followed by selection with neomycin sulfate (G418). […] Each condition was tested in duplicate and average absorbance values were used for calculations. […] After washing again as above, the reaction was developed with p-Nitrophenyl phosphate disodium substrate (Sigma) and the absorbance at 405/620 nm read at intervals. […]
A general note: An ELISA detects its analyte on a solid surface through an enzyme-linked reagent.

T1 sequence (P26663 2420-3010): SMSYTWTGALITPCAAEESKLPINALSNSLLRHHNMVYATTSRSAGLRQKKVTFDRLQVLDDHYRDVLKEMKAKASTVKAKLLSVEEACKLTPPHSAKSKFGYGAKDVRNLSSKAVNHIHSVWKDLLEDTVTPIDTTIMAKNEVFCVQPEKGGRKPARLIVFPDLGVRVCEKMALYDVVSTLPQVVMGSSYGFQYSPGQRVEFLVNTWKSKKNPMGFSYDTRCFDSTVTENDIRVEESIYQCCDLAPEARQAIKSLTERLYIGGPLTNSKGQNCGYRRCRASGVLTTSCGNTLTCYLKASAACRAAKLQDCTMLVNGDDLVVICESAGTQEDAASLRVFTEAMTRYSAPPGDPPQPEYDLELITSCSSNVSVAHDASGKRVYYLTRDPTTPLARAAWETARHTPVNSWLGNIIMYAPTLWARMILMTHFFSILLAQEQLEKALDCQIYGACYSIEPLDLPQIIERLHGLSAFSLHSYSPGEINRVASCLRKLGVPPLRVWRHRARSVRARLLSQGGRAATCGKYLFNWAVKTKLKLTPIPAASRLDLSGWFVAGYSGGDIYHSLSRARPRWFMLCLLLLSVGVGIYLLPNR

The term IC50 denotes the concentration that inhibits the measured activity by half. A lower IC50 goes with higher potency. For orientation: EC50 means the concentration needed to bring the measured effect to its halfway point. Low values mean a more potent agent, high ones a less potent agent. With `CN(CC1CCCCN1C)C(=O)Cn1c(-c2ccccc2)c(C2CCCCC2)c2ccc(C(=O)O)cc21` (centres unmarked) [Example 15, 3-cyclohexyl-1-(2-{methyl[(1-methylpiperidin-2-yl)methyl]amino}-2-oxoethyl)-2-phenyl-1H-indole-6-carboxylic acid trifluoroacetate], in assay [1], the IC50 was 14 nM. In addition, in assay [2], a half-maximal effect (EC50) was put at 270 nM.
